Here are results for ten molecules from patent publication US20040023972A1, “Use of substituted imidazo[1,2-a]-pyridin-, -pyrimidin-and-pyrazin-3-yl-amine derivatives in the preparation of medicaments for inhibiting NOS” (Gruenenthal GmbH, priority 2000, published 2004).

Counter-ions that a name gives are not always drawn.

The first assay concerns the target T1, NO synthase (Rattus norvegicus, UniProt P29476).
T1 construct: the supernatant was then removed by decantation and frozen in portions at −80° C; from tissue; host or cells: rat cerebellum, 20,000 g supernatant of homogenate
Put plainly: HTS-NOS assay (NOS assay): conversion of radioactive arginine, cation-exchanger filter plate. Format: biochemical. As to conditions: 10 μM. The procedure, abridged:
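Percent inhibition was derived by comparing remaining radioactive arginine with compound-free controls. Arginine retained on phosphate cation-exchanger filters was counted after citrulline washout, following a 5-60 min room-temperature (25 °C) reaction of labelled arginine, NADPH-containing medium and rat cerebellar homogenate supernatant.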
On to “[6-(acetyl-{7-methyl-2-[5-(2-nitro-phenyl)-furan-2-yl]-imidazo[1,2-a]pyridin-3-yl}-amino)-hexyl]-methylidyne-ammonium [Example 215]”, for which the “HTS-NOS assay: % inhibition (10 μM)” value was found to be 50%.

The same assay, now with this note: read-out: HTS-NOS assay: % inhibition (10 μM).
One may read the inhibition as the drop in the measured response relative to a control, in per cent. Regarding `CCc1ccn2c(Nc3ccc(F)c(Cl)c3)c(-c3cc4ccccc4o3)nc2c1` [Example 318, (2-Benzofuran-2-yl-7-ethyl-imidazo[1,2-a]-pyridin-3-yl)-(3-chloro-4-fluoro-phenyl)-amine], the inhibition at 10 µM was determined as 52%.

Take `CCc1ccn2c(Nc3cccc(Cl)c3)c(-c3cc4ccccc4o3)nc2c1` [Example 319, (2-Benzofuran-2-yl-7-ethyl-imidazo[1,2-a]-pyridin-3-yl)-(3-chloro-phenyl)-amine]: the inhibition at 10 µM was 53%.

Turning to `CCc1ccn2c(Nc3ccc(F)c(Cl)c3)c(-c3ccc(-c4cccc(Cl)c4)o3)nc2c1` [Example 320, (3-Chloro-4-fluorophenyl)-{2-[5-(3-chloro-phenyl)-furan-2-yl]-7-ethyl-imidazo[1,2-a]-pyridin-3-yl}-amine], the inhibition at 10 µM worked out at 52%.

As to `CCc1ccn2c(Nc3ccc(F)c(Cl)c3)c(-c3ccc(-c4ccccc4Cl)o3)nc2c1` [Example 321, (3-Chloro-4-fluorophenyl)-{2-[5-(2-chlorophenyl)-furan-2-yl]-7-ethyl-imidazo[1,2-a]pyridin-3-yl}-amine], the inhibition at 10 µM worked out at 50%.

As for `CCc1ccn2c(Nc3ccc(F)c(Cl)c3)c(-c3cc(C)c(C)o3)nc2c1` [Example 322, (3-Chloro-4-fluorophenyl)-[2-(4,5-dimethyl-furan-2-yl)-7-ethyl-imidazo[1,2-a]pyridin-3-yl]-amine], the inhibition at 10 µM worked out at 49%.

Another assay addresses NOS (Rattus norvegicus, UniProt P29476). Put plainly: Citrulline assay (Bredt and Snyder).
Settings: not given
Format: biochemical. Here is the method: This assay was carried out as described by D. S. Bredt and S. H. Snyder (Proc. Natl. Acad. Sci. USA (1990), 87, 682-685).
The term IC50 denotes the concentration needed to halve the response being measured. A low value points to greater potency in that assay. As for `Cc1ccn2c(NC3CCCCC3)c(-c3ccccc3C(F)(F)F)nc2c1` [Example 292, Cyclohexyl-[7-methyl-2-(2-trifluorO-methyl-phenyl)-imidazo[1,2-a]pyridin-3-yl]-amine; hydrochloride], the midpoint of inhibition, the IC50, lay at 2.4 µM.

Regarding `Cc1cc(C)n2c(NC3CCCCC3)c(-c3ccncc3)nc2c1` [Example 295, Cyclohexyl-(5,7-dimethyl-2-pyridin-4-yl-imidazo[1,2-a]pyridin-3-yl)-amine; hydrochloride], the IC50 amounted to 9.2 µM.

In turn, `Cc1cc(C)n2c(NC(C)(C)CC(C)(C)C)c(-c3ccco3)nc2c1` [Example 296, (2-Furan-2-yl-5,7-dimethyl-imidazo[1,2-a]-pyridin-3-yl)-(1,1,3,3-tetramethyl-butyl)-amine; hydrochloride] displayed an IC50 of 2.5 µM.

Take `Cc1ccn2c(NC(C)(C)CC(C)(C)C)c(-c3ccccc3F)nc2c1` [Example 298, [2-(2-Fluorophenyl)-7-methyl-imidazo[1,2-a]pyridin-3-yl]-(1,1,3,3-tetramethyl-butyl)-amine; hydrochloride]: half-maximal inhibition (IC50) was put at 4.3 µM.
